Tests used:
porcine satellite cells = settings: 10 μM for 48 hours (Fan et al.); cited from earlier work
C2C12 myoblasts = settings: mouse-derived C2C12 muscle cell lines; cited from earlier work
Aurora C kinase = Aurora C kinase (Homo sapiens, UniProt Q9UQB9); settings: cited from earlier work
[1] = tested on: satellite cell-derived myoblasts
Description: Myoblasts were grown in the high-serum medium until reaching a 60-70% confluence by visual inspection in 12-well plate culture dishes.
In a first set of wells, the myoblast cell preparations were placed in a high-serum medium until about 70% confluence was reached. […] These myoblast cell preparations were then switched to a low-serum medium (as described in Example 1) for four days to promote fusion and myotube formation.
In a second set of wells, the myoblast cell preparations were placed in a high-serum medium until about 70% confluence was reached. Then, the myoblast cell preparations were exposed to 5 μM of 5-azacytidine in the high-serum medium for 6 hours. These myoblast cell preparations were finally switched to a low-serum medium (as described in Example 1) for 4 days to promote fusion and myotube formation.
In a third set of wells, the myoblast cell preparations were placed in a high-serum medium until about 70% confluence was reached. These myoblast cell preparations were then exposed to 5 μM of 5-azacytidine in the high-serum medium for 24 hours. These myoblast cell preparations were finally switched to a low-serum medium (as described in Example 1) for 4 days to promote fusion and myotube formation.
In a fourth set of wells, the myoblast cell preparations were placed in a high-serum medium until about 70% confluence was reached.
In a fifth set of wells, the myoblast cell preparations were placed in a high-serum medium until about 70% confluence was reached. […] These same myoblast cell preparations were finally switched to a low-serum medium for 4 days to promote fusion and myotube formation.
FIG. 5, from left to right, depicts 5 columns with 5 different assays on myotube preparations differentiated from the myoblast cell preparations in the 12-well dishes. […] The second column reflects myotubes differentiated from a myoblast cell preparation from the second set of wells, which was exposed to 5 μM of 5-AZA in high serum medium for 6 hours. The third column reflects myotubes differentiated from a myoblast cell preparation from the third set of wells, which was exposed to 5 μM of 5-AZA in high serum medium for 24 hours. […] The immunostainings on the top row of FIG. 5 identifies lipid membranes (green color, WGA), nuclei (blue color, DAPI) and myotubes (red color, ACTA2). The gray-scale panels (middle row) show staining for nuclei only (DAPI). The gray-scale panels in the bottom row show staining for muscle fibers only (ACTA2).
Briefly, satellite cells were isolated from muscle biopsies obtained from TD children during surgical procedures, sorted using FACS, plated in gelatin coated dishes, and grown into proliferation medium in 12-well plates.

Aurora C kinase, sequence (Q9UQB9 whole entry): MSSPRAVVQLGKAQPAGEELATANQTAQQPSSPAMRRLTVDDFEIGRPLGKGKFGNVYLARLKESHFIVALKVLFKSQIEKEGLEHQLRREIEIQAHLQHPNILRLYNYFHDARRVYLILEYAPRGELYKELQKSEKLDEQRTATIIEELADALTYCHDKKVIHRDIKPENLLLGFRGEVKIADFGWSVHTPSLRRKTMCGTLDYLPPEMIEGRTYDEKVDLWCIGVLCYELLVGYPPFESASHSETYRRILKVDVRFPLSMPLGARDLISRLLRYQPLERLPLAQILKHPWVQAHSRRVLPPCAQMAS

| SMILES | cell viability (porcine satellite cells) | myogenic response (porcine satellite cells) | muscle-specific gene expression, myogenesis and myotube formation (C2C12 myoblasts) | IC50 (Aurora C kinase) [nM] | myoblast fusion and myotube formation ([1]; CP and TD myoblasts, FIG. 5 and FIG. 6, 5 μM) | cell death and polyploidy (nuclei) ([1]; CP myoblasts, FIG. 5, 5 μM) | morphological changes to the membranes of the cells (WGA staining) ([1]; CP myoblasts, FIG. 5, 5 μM, 3 days) | morphological changes to ACTA2-negative cells and nuclei ([1]; TD myoblasts, FIG. 6, 5 μM) | cell death over time ([1]; myoblasts) | de-differentiation of myoblasts ([1]; myoblasts) |
| --- | --- | --- | --- | --- | --- | --- | --- | --- | --- | --- |
| Nc1ncn([C@H]2C[C@H](O)[C@@H](CO)O2)c(=O)n1 [decitabine, 5-aza-2′-deoxycytidine] | no change in cell viability | positive myogenic response | promoted expression of muscle-specific genes, enhanced myogenesis and myotube formation | – | – | – | – | – | – | – |
| c1nc2nc(Nc3ccc(N4CCOCC4)cc3)nc(NC3CCCCC3)c2[nH]1 [Reversine, 2-(4-morpholinoanilino)-6-cyclohexylaminopurine] | – | – | – | 20 | shown to promote myoblast fusion and myotube formation | lower in number and suffer from polyploidy | causes morphological changes to the membranes of the cells | led to significant morphological changes to ACTA2-negative cells and nuclei in general | over time also leads to cell death | causes myoblasts to de-differentiate |
